Experiment [1] addresses T1, jack bean urease (Canavalia ensiformis, UniProt P07374). Put plainly: urease enzyme kinetics study. In kind it is biochemical.
Experiment [2] deals with T1, jack bean urease. Put plainly: % urease inhibition assay and IC50. The format is biochemical.

T1 sequence (P07374 whole entry, looked up): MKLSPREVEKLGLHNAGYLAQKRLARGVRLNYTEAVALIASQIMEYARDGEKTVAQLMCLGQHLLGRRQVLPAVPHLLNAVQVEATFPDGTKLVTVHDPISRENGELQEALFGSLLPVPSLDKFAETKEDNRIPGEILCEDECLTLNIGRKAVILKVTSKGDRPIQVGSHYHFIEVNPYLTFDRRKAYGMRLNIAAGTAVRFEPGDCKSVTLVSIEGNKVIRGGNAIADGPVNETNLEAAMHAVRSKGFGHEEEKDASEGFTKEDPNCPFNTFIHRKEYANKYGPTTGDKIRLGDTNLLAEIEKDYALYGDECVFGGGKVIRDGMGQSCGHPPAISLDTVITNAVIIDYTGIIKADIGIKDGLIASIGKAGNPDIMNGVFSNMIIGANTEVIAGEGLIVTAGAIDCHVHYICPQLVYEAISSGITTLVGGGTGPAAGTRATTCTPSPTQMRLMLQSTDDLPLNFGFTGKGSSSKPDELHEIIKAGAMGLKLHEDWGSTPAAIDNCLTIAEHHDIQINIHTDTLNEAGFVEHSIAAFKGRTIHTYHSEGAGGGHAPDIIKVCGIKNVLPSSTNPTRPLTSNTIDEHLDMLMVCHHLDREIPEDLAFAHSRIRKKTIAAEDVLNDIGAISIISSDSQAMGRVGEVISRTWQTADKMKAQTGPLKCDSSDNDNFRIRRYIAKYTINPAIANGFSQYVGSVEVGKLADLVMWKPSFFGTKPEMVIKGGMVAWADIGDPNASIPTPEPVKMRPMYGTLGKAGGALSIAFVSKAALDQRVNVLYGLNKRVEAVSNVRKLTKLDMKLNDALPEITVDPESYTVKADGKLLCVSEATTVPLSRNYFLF

Turning to `NC(N)=S` [Thiourea, thiourea], the Mode of inhibition result on jack bean urease [1] (Lineweaver–Burk plots, inhibitor 0–20 μM, urea 0.5–4.0 mM) was “Competitive”. In addition, on jack bean urease [1] (calculated from secondary replot (Lineweaver–Burk)), the inhibition constant Ki was 18.2 µM. For the same molecule, the “Vmax (app)” value at jack bean urease [1] (maximum velocity of enzymatic activity at 20 μM inhibitor concentration) was 18.61 µM/min. Besides, the “% inhibition” value at jack bean urease [2] (concentration not given) was found to be 92.3%. At jack bean urease [2] (read-out: IC50 (μM), mean ± SEM, triplicate, mean ± SEM), the half-inhibitory concentration (IC50) worked out at 22.6 ± 0.23 µM.

The values are drawn from article PMC9052855 (RSC Advances, 2020).
